Legend:
[1] = target: T1, Recombinant human CASP1 (Homo sapiens, UniProt P29466); test: CASP1 enzymatic assay: cleavage of glucocorticoid receptor (NR3C1) by recombinant CASP1; type: biochemical; conditions: for CASP1-induced cleavage of the glucocorticoid receptor (NR3C1): recombinant human CASP1, 30° C., inhibitor 10 μM unless otherwise indicated, FIG. 3A, 3C
T1 construct: purchased Enzo Life Sciences BML-AK701-0001
T1 sequence (P29466 120-297): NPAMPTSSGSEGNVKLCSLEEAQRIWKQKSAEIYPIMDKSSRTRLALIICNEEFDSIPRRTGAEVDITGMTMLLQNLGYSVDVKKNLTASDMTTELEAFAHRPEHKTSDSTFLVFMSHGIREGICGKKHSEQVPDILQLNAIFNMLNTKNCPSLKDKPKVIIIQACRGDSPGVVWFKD
T1 sequence (P29466 317-404): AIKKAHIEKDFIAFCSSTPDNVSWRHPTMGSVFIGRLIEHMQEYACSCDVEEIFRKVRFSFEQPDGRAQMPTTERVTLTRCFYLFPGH
Protocol: Recombinant human CASP1 (100-200 U, where U=1 pmol/min at 30° C., 200 μM YVAD-pNA (SEQ ID NO: 21)) from a CASP1 assay kit for drug discovery (Enzo Life Sciences, Farmingdale, N.Y., catalog number BML-AK701-0001) was incubated at 30° C. with wild-type or mutated GR in the presence (10 μM unless otherwise indicated) or absence of inhibitors, (Ac-YVAD-CHO (SEQ ID NO: 18), Enzo Life Sciences, Farmingdale, N.Y., catalog number BML-P403-9090), VX765, VRT-043198).
Cells were pelleted by centrifugation, washed once with PBS and lysed with RIPA buffer or caspase-1 assay buffer (Enzo Life Sciences, Farmingdale, N.Y. catalog number KI-111), equal amounts of proteins (1-20 μg) separated by 4-12% Novex Bis-Tris gels (Life Technologies, Grand Island, N.Y.), and then transblotted to PVDF membranes (Life Technologies, Grand Island, N.Y.). Anti-GR (1:1000-1:10,000, BD catalog number 611227), anti-DDK […] (1:1000, Origene catalog number TA50011), anti-Bim (1:1000, Cell Signalling catalog number 2819) or anti-Tubulin (1:1000, Santa Cruz, sc-8035) were used as primary antibodies followed by appropriate secondary HRP-conjugated IgG (1:1000, Dako) and immunocomplexes were visualized by chemiluminescence.

[2] = test system: Nalm6 leukemia cell line; test: MTT drug sensitivity assay in Nalm6 cells with enforced CASP1 expression or empty vector; type: cell-based, human; conditions: for increase in resistance (LC50) by CASP1 over-expression: Nalm6 cells transduced with CASP1, after activation of NLRP3 inflammasome (LPS/ATP), average
Protocol: Leukemia cells were isolated at diagnosis from patient bone marrow aspirates. If the leukemia cell percentage from diagnostic bone marrow samples was less than ninety percent, magnetic activated cell sorting (Miltenyl Biotec, Auburn, Calif.) was performed to further enrich for leukemia cells. If red cell contamination was greater than thirty percent, red blood cell lysis was performed. Cells were centrifuged at 300 g for five minutes and resuspended at a concentration of two million cells per milliliter. Eighty microliters of this leukemia cell suspension was then plated into each experimental well of round-bottom 96-well plates. Twenty microliters of decreasing concentrations of prednisolone were added and the plates were incubated for ninety-six hours in a humidified incubator containing 5% CO2 at 37° C. For the final six hours, ten microliters of 5 milligram per milliliter MTT (3-4,5-dimethylthiazol-2,5-diphenyl tetrazolium bromide) was added to each experimental well. Drug resistance assays in cell lines were performed using between 0.25 and 2.5 million cells per milliliter. Assays were developed and performed as for patient sample assays. LC50 values were determined as previously described (Holleman et al., 2004).
Full-length CASP1 (Origene, Rockville, Md., catalog # RC218364; GenBank Accession No. NM_033292) was subcloned into a lentiviral backbone (System Biosciences, Mountain View, Calif., catalog number CD527A-1), in frame with a T2A linked puromycin resistance gene. Lentivirus was produced in 293T cells and the Nalm6 leukemia cell line was transduced. 72 hours post transduction, cells were selected with 2.5 micrograms per milliliter puromycin. Where indicated cells were treated with 10 μg/mL LPS (InvivoGen, San Diego, Calif.) followed 2 hours later by 5 mM ATP (Roche, Pleasanton, Calif.).

[3] = test system: NALM-6 cells overexpressing CASP1; type: cell-based, human; conditions: CASP1 overexpressing ALL (NALM-6) cells transduced with the named shRNA, +LPS/ATP, MTT, mean±S.E.M., n=4; read-out: LC50 (glucocorticoid sensitivity, prednisolone)
Protocol: The sensitivity (LC50) of shCASP1 and shNT cells to prednisolone was determined by MTT assays (Panel B). […] Error bars represent S.E.M; n=4 replicate experiments.
NALM-6 cells overexpressing CASP1 co-transfected with either non-targeting scrambled hairpin (shNT; SEQ ID NO: 13) or shRNA hairpins targeting CASP1 (shCASP1; SEQ ID NO: 14) were stably transduced with lentiviral vectors (Addgene plasmid 25890; Sigma-Aldrich, St. Louis, Mo.) containing a wild-type glucocorticoid receptor (SEQ ID NO: 16) or a glucocorticoid receptor in which both CASP1 cleavage sites had been eliminated (double mutagenized GR, DM-GR (SEQ ID NO: 17)).
Cells were centrifuged at 300 g for five minutes and resuspended at a concentration of two million cells per milliliter. Eighty microliters of this leukemia cell suspension was then plated into each experimental well of round-bottom 96-well plates. Twenty microliters of decreasing concentrations of prednisolone were added and the plates were incubated for ninety-six hours in a humidified incubator containing 5% CO2 at 37° C. For the final six hours, ten microliters of 5 milligram per milliliter MTT (3-4,5-dimethylthiazol-2,5-diphenyl tetrazolium bromide) was added to each experimental well. […] LC50 values were determined as previously described (Holleman et al., 2004). […]

Row | Molecule | CASP1-induced cleavage of the glucocorticoid receptor (NR3C1) [1] | increase in resistance (LC50) by CASP1 over-expression [2] [fold] | other results
1 | CC(C)(C)[C@@H](NC(=O)c1ccc(N)c(Cl)c1)C(=O)N1CCC[C@H]1C(=O)N[C@H](C=O)CC(=O)O [VRT043198, (S)-3-((S)-1-((R)-2-(4-amino-3-chlorobenzamido)-3,3-dimethylbutanoyl)pyrrolidine-2-carboxamido)-4-oxobutanoic acid] | inhibited |  | inhibitory activity on CASP1 cleavage of NR3C1 compared with VX-765 ([1]; FIG. 3C): higher inhibitory activity
2 | CCO[C@H]1OC(=O)C[C@@H]1NC(=O)[C@@H]1CCCN1C(=O)[C@H](NC(=O)c1ccc(N)c(Cl)c1)C(C)(C)C [VX765, (S)-1-((R)-2-(4-amino-3-chlorobenzamido)-3,3-dimethylbutanoyl)-N-((2S,3S)-2-ethoxy-5-oxotetrahydro-furan-3-yl)pyrrolidine-2-carboxamide] | inhibited |  | 
3 | C[C@@H]1C[C@H]2[C@@H]3CCC4=CC(=O)C=C[C@]4(C)[C@@]3(F)[C@@H](O)C[C@]2(C)[C@@]1(O)C(=O)CO [dexamethasone] |  | 5.3 | 
4 | C[C@]12C=CC(=O)C=C1CC[C@@H]1[C@@H]2[C@@H](O)C[C@@]2(C)[C@H]1CC[C@]2(O)C(=O)CO [prednisolone] |  | 16.9 | difference in sensitivity on activation of the NLRP3 inflammasome and CASP1 ([2]; Nalm6 cells transduced with empty vector control virus): no difference
5 | shNT: non-targeting scrambled shRNA hairpin, control (CCGGCAACAAGATGAAGAGCACCAACTCGAGTTGGTGCTCTTCATCTTGTTGTTTTT) |  |  | CC50 [3]: 570 ± 423 µM
